According to ChEMBL document CHEMBL1201862, “PubChem BioAssay data set” (2004):
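A five-concentration, 48-hour dose response in 96-well plates underlies each endpoint, interpolated linearly between surrounding concentrations. GI50 = concentration required for 50% inhibition of growth.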 Activity calls are given as the source filed them. No stated cut-off is given here; in the data, active = GI50 up to about 1.1 µM and inactive = higher.

How the values were obtained:
Assay in all cases: NCI-60 cell line screen, 48 h
DU-145 = system: DU-145
NCI/ADR-RES = system: NCI/ADR-RES
SF-268 = system: SF-268
SK-MEL-5 = system: SK-MEL-5
NCI-H460 = system: NCI-H460
NCI-H226 = system: NCI-H226
RXF 393 = system: RXF 393
RPMI-8226 = system: RPMI-8226
CCRF-CEM = system: CCRF-CEM
HL-60 = system: HL-60
ACHN = system: ACHN
M14 = system: M14
SN12C = system: SN12C
T47D = system: T47D
COLO 205 = system: COLO 205
HT-29 = system: HT-29
SNB-75 = system: SNB-75
LOX IMVI = system: LOX IMVI
MDA-MB-435 = system: MDA-MB-435

SMILES | GI50 (DU-145) | GI50 (NCI/ADR-RES) | GI50 (SF-268) | GI50 (SK-MEL-5) | GI50 (NCI-H460) | GI50 (NCI-H226) | GI50 (RXF 393) | GI50 (RPMI-8226) | GI50 (CCRF-CEM) | GI50 (HL-60) | GI50 (ACHN) | GI50 (M14) | GI50 (SN12C) | GI50 (T47D) | GI50 (COLO 205) | GI50 (HT-29) | GI50 (SNB-75) | GI50 (LOX IMVI) | GI50 (MDA-MB-435)
O=C(O)CCc1nc2c(n1Cc1ccccc1)C(=O)c1ccccc1C2=O | > 100 µM (inactive) | 59.6 µM (inactive) | 60.5 µM (inactive) | 21.2 µM (inactive) | 37.9 µM (inactive) | > 100 µM (inactive) | 24.9 µM (inactive) | 39 µM (inactive) | 76.7 µM (inactive) | 64 µM (inactive) | > 100 µM (inactive) | 21.4 µM (inactive) | 44.5 µM (inactive) | 52 µM (inactive) | 33.9 µM (inactive) | 42 µM (inactive) | > 100 µM (inactive) | 27.2 µM (inactive) | 19.2 µM (inactive)
CC1=C(C(=O)NCC(C)O)CC(C(=O)NCC(C)O)=C(C)N1 (configuration not stated) | > 100 µM (inactive) | > 100 µM (inactive) | > 100 µM (inactive) | > 100 µM (inactive) | > 100 µM (inactive) | 89.7 µM (inactive) | > 100 µM (inactive) | > 100 µM (inactive) | > 100 µM (inactive) | > 100 µM (inactive) | > 100 µM (inactive) | > 100 µM (inactive) | > 100 µM (inactive) | > 100 µM (inactive) | > 100 µM (inactive) | > 100 µM (inactive) | 72.9 µM (inactive) | > 100 µM (inactive) | > 100 µM (inactive)
COc1cccc(-c2cc(O)c3cc(Cl)cnc3n2)c1 | 0.358 µM (active) | 0.0341 µM (active) | 0.165 µM (active) | 0.0495 µM (active) | 0.0783 µM (active) | 0.08 µM (active) | 0.0698 µM (active) | 0.0378 µM (active) | 0.0484 µM (active) | 0.0211 µM (active) | 0.127 µM (active) | 0.0443 µM (active) | 0.143 µM (active) | 30.5 µM (inactive) | 0.113 µM (active) | 0.0908 µM (active) | 33.5 µM (inactive) | 0.0687 µM (active) | 0.0155 µM (active)
CCCCCCCCCCCCCCCCCC(=O)OCC(COC1OC(COP(=O)(O)O)C(O)C(O)C1O)OC(=O)CCCCCCCCCCCCCCCCC (configuration not stated) | 9.62 µM (inactive) | 9.33 µM (inactive) | 8.97 µM (inactive) | 9.1 µM (inactive) | 11.7 µM (inactive) | 4.21 µM (inactive) | 8.95 µM (inactive) | 13.6 µM (inactive) | 4.95 µM (inactive) | 12.4 µM (inactive) | 6.41 µM (inactive) | 9.14 µM (inactive) | 7 µM (inactive) | 11.9 µM (inactive) | 9.59 µM (inactive) | 5.32 µM (inactive) | 4.63 µM (inactive) | 9.06 µM (inactive) | 9.71 µM (inactive)
O=C(/C=C(\Nc1ccccc1O)c1ccc(Br)cc1)C(Cl)(Cl)Cl | 3.03 µM (inactive) | 11.4 µM (inactive) | 11.7 µM (inactive) | 14.2 µM (inactive) | 3.21 µM (inactive) | 12.1 µM (inactive) | 5.51 µM (inactive) | 1.79 µM (inactive) | 15.4 µM (inactive) | 2.36 µM (inactive) | 2.55 µM (inactive) | 15.5 µM (inactive) | 7.67 µM (inactive) | 3.95 µM (inactive) | 6.95 µM (inactive) | 6.43 µM (inactive) | 13.7 µM (inactive) | 17.9 µM (inactive) | 8.89 µM (inactive)
COC(=O)c1ccc(/C=C/c2cc(O)ccc2O)cc1 | 14.9 µM (inactive) | 2.08 µM (inactive) | 2.15 µM (inactive) | 3.82 µM (inactive) | 8.45 µM (inactive) | 12.6 µM (inactive) | 2.25 µM (inactive) | 0.333 µM (active) | 0.242 µM (active) | 0.269 µM (active) | 3.19 µM (inactive) | 13.1 µM (inactive) | 2.38 µM (inactive) | 1.6 µM (inactive) | 4.97 µM (inactive) | 30.3 µM (inactive) | 15 µM (inactive) | 2.24 µM (inactive) | 3.21 µM (inactive)
CCCCCCCCCCCCC/C=C/[C@@H](O)[C@H](COC1OC(CO)C(OC2OC(CO)C(O)C(OC3(C(=O)O)CC(O)C(NC(C)=O)C(C(O)C(O)CO)O3)C2O)C(O)C1O)N=[N+]=[N-] (some centres not stated) | > 100 µM (inactive) | 21.8 µM (inactive) | 22.2 µM (inactive) | 17.4 µM (inactive) | 36.9 µM (inactive) | 20.8 µM (inactive) | 20.7 µM (inactive) | 95.3 µM (inactive) | 22.5 µM (inactive) | 37.5 µM (inactive) | > 100 µM (inactive) | 18.7 µM (inactive) | > 100 µM (inactive) | 48.5 µM (inactive) | 17.8 µM (inactive) | 22 µM (inactive) | 15.9 µM (inactive) | 20.2 µM (inactive) | > 100 µM (inactive)
NC(Cc1c[nH]c(I)n1)C(=O)O (configuration not stated) | > 100 µM (inactive) | 37.1 µM (inactive) | 84.9 µM (inactive) | 82.2 µM (inactive) | > 100 µM (inactive) | > 100 µM (inactive) | 45.2 µM (inactive) | > 100 µM (inactive) | 22.1 µM (inactive) | 2.27 µM (inactive) | > 100 µM (inactive) | > 100 µM (inactive) | > 100 µM (inactive) | 90.6 µM (inactive) | > 100 µM (inactive) | > 100 µM (inactive) | 25.6 µM (inactive) | > 100 µM (inactive) | > 100 µM (inactive)
Cc1ccccc1/N=C/N(C)C | 44.2 µM (inactive) | > 100 µM (inactive) | 57.4 µM (inactive) | 17.2 µM (inactive) |  | 48.4 µM (inactive) | 50.4 µM (inactive) | 13.3 µM (inactive) | 23.2 µM (inactive) | 14.1 µM (inactive) | 41.8 µM (inactive) | 99.3 µM (inactive) | 66.5 µM (inactive) | 34 µM (inactive) | 39.6 µM (inactive) | 34.3 µM (inactive) | 44.9 µM (inactive) | 23.8 µM (inactive) | 42.1 µM (inactive)
CC(=O)/C(=C/c1ccccc1F)C(=O)c1ccccc1 | 33.6 µM (inactive) | 29.1 µM (inactive) | 33.2 µM (inactive) | 42.9 µM (inactive) | 25.1 µM (inactive) | 76.4 µM (inactive) | 17.4 µM (inactive) | 18.3 µM (inactive) |  | 21.4 µM (inactive) | 35.2 µM (inactive) | 56 µM (inactive) | 37.2 µM (inactive) | 24.9 µM (inactive) | 60.5 µM (inactive) | 33.1 µM (inactive) | 38.9 µM (inactive) | 17.8 µM (inactive) | 37.9 µM (inactive)
CC(C#N)(c1ccccc1)N(CCc1ccccc1)C(=O)Oc1ccccc1 (configuration not stated) | > 100 µM (inactive) | > 100 µM (inactive) | > 100 µM (inactive) | > 100 µM (inactive) |  | 38.5 µM (inactive) | 26.7 µM (inactive) | > 100 µM (inactive) | > 100 µM (inactive) | > 100 µM (inactive) | > 100 µM (inactive) | > 100 µM (inactive) | > 100 µM (inactive) | > 100 µM (inactive) | > 100 µM (inactive) | > 100 µM (inactive) | 25.9 µM (inactive) | > 100 µM (inactive) | > 100 µM (inactive)
COc1ccc2c(c1)/C(=C\c1c(Cl)nc3n1CCS3)C(=O)N2 | 11.8 µM (inactive) | 4.48 µM (inactive) | 13.8 µM (inactive) | 5.06 µM (inactive) | 3.71 µM (inactive) |  | 2.13 µM (inactive) | 4.03 µM (inactive) | 6.31 µM (inactive) | 3.58 µM (inactive) | 11 µM (inactive) | 7.5 µM (inactive) | 10.8 µM (inactive) | 5.16 µM (inactive) | 3.14 µM (inactive) | 3.25 µM (inactive) | 10.8 µM (inactive) | 9.71 µM (inactive) | 1.29 µM (inactive)
CCOC(=O)CO/N=C1/C(=C2/C(=O)Nc3ccccc32)Nc2ccccc21 | > 100 µM (inactive) | > 100 µM (inactive) | 27 µM (inactive) | 49.5 µM (inactive) | > 100 µM (inactive) |  | 7.82 µM (inactive) | > 100 µM (inactive) | > 100 µM (inactive) | > 100 µM (inactive) | 67 µM (inactive) | > 100 µM (inactive) | 31.3 µM (inactive) | 2.29 µM (inactive) | > 100 µM (inactive) | > 100 µM (inactive) | 3.39 µM (inactive) | > 100 µM (inactive) | > 100 µM (inactive)
CC1OC(O[C@H]2C3C=CO[C@@H](OC4OC(CO)C(O)C(O)C4O)C3[C@@]3(COC(=O)/C=C/c4ccc(O)cc4)O[C@@H]23)C(O)C(O)C1O (some centres not stated) | > 100 µM (inactive) | > 100 µM (inactive) | > 100 µM (inactive) | > 100 µM (inactive) | > 100 µM (inactive) | > 100 µM (inactive) | > 100 µM (inactive) | > 100 µM (inactive) |  | > 100 µM (inactive) | > 100 µM (inactive) | > 100 µM (inactive) | > 100 µM (inactive) | > 100 µM (inactive) | > 100 µM (inactive) | > 100 µM (inactive) | > 100 µM (inactive) | > 100 µM (inactive) | > 100 µM (inactive)
C[C@]12CC[C@H]3[C@@H](CCC4=C/C(=N/OCCN5CCCCC5)CC[C@@]43C)[C@@H]1CC[C@@H]2O | 21.9 µM (inactive) | 16.7 µM (inactive) |  | 8.63 µM (inactive) |  | 4.29 µM (inactive) | 11.8 µM (inactive) | 10.7 µM (inactive) | 9.31 µM (inactive) | 2.99 µM (inactive) | 20.7 µM (inactive) | 8.02 µM (inactive) | 17.4 µM (inactive) | 28 µM (inactive) | 16.1 µM (inactive) | 1.37 µM (inactive) | 7.26 µM (inactive) | 11 µM (inactive) | 7.66 µM (inactive)
